Consider two molecules from US8575337B2, “Oxazolidinone derivative having fused ring” (Research Foundation Itsuu Laboratory, priority 2008, dated 2013).

Values after ≈ are worked out from the molar mass of the structure shown.

Holding throughout (assay): MIC determination, CLSI standard method
Format in all cases: cell-based

Test [1] has as its system S. aureus SR3637 (MRSA). The note with it: Staphylococcus aureus, cation-adjusted Mueller Hinton Broth, inoculum about 5×10^5 CFU/mL. As for the experimental part: (§1) The compounds of the above Examples were tested for antimicrobial activity.
(§2) Minimal inhibitory concentration (MIC: μg/ml) against different strains of bacteria was determined according to the standard method recommended by CLSI (clinical and laboratory standards institute). The samples used were prepared by dissolving the compound in DMSO at the concentration 1280 μg/mL, followed by a two fold serial dilution with DMSO. The sample was added to a bacteria suspension at the concentration of 5%, and MIC was determined. Cation-adjusted Mueller Hinton Broth was used as a culture media. The inoculation concentration was about 5×10^5 CFU/mL.

For test [2], the system named is E. faecium SR7940 (VRE). The note with it: Enterococcus faecium, cation-adjusted Mueller Hinton Broth, inoculum about 5×10^5 CFU/mL. As to the method: as §1, §2
Test [3] has as its system S. aureus NRS271 (LZD-R). The note with it: Staphylococcus aureus, cation-adjusted Mueller Hinton Broth, inoculum about 5×10^5 CFU/mL. As to the method:
as §1, §2

As for `CC(=O)NC[C@H]1CN(c2ccc(-c3ccn4ccnc4c3)c(F)c2)C(=O)O1` [Example 18], the values for the MIC in test [1], in test [2] and in test [3] were 0.25 µg/mL (≈ 0.679 µM), 0.25 µg/mL (≈ 0.679 µM) and 2 µg/mL (≈ 5.43 µM), respectively.

In the case of `CC(=O)NC[C@H]1CN(c2ccc(N3CCOCC3)c(F)c2)C(=O)O1` [Linezolid, (S)-n-[[3-[3-fluoro-4-(4-morpholinyl)phenyl]-2-oxo-5-oxazolidinyl]methyl]acetamide], the MIC amounted to 2 µg/mL (≈ 5.93 µM) in test [1], 2 µg/mL (≈ 5.93 µM) in test [2] and 32 µg/mL (≈ 94.9 µM) in test [3].

What is called MIC is the lowest concentration found to suppress growth. A low value points to inhibition by little substance.
